According to ChEMBL document CHEMBL1201862, “PubChem BioAssay data set” (2004):
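Each compound was tested at five concentrations against cells in 96-well plates for 48 hours. GI50 is the concentration that inhibits growth by half.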 Activity calls are given as the source filed them. Rule as the data show it: active = GI50 up to about 1.1 µM and inactive = higher.

Columns and labels:
Test in all cases: DTP human tumour cell line panel, 48 h
OVCAR-8 = test system: OVCAR-8
SF-539 = test system: SF-539
UACC-257 = test system: UACC-257
Malme-3M = test system: Malme-3M
SK-MEL-5 = test system: SK-MEL-5
A498 = test system: A498
HOP-62 = test system: HOP-62
HL-60 = test system: HL-60
HCT-116 = test system: HCT-116
A549 = test system: A549
M14 = test system: M14
SW-620 = test system: SW-620
OVCAR-3 = test system: OVCAR-3
UO-31 = test system: UO-31
MDA-MB-231 = test system: MDA-MB-231
BT-549 = test system: BT-549
NCI-H460 = test system: NCI-H460
OVCAR-4 = test system: OVCAR-4
EKVX = test system: EKVX
SNB-19 = test system: SNB-19
MDA-MB-435 = test system: MDA-MB-435
NCI-H226 = test system: NCI-H226
HT-29 = test system: HT-29
SF-295 = test system: SF-295
MCF7 = test system: MCF7
T47D = test system: T47D
RXF 393 = test system: RXF 393
SN12C = test system: SN12C
IGROV-1 = test system: IGROV-1
Hs-578T = test system: Hs-578T
HCT-15 = test system: HCT-15
RPMI-8226 = test system: RPMI-8226
786-0 = test system: 786-0
SF-268 = test system: SF-268
MOLT-4 = test system: MOLT-4
UACC-62 = test system: UACC-62
NCI-H522 = test system: NCI-H522
CAKI-1 = test system: CAKI-1
SK-OV-3 = test system: SK-OV-3
TK-10 = test system: TK-10
NCI/ADR-RES = test system: NCI/ADR-RES
COLO 205 = test system: COLO 205
LOX IMVI = test system: LOX IMVI
SK-MEL-28 = test system: SK-MEL-28
KM12 = test system: KM12
PC-3 = test system: PC-3
K562 = test system: K562
SK-MEL-2 = test system: SK-MEL-2
OVCAR-5 = test system: OVCAR-5
U-251 = test system: U-251
HCC 2998 = test system: HCC 2998
SNB-75 = test system: SNB-75
MDA-N = test system: MDA-N
NCI-H23 = test system: NCI-H23
ACHN = test system: ACHN
DU-145 = test system: DU-145
HOP-92 = test system: HOP-92

## C(=N\Nc1nnc2c(n1)[nH]c1ccccc12)/c1cccnc1
OVCAR-8
  GI50: > 100 µM (inactive)
SF-539
  GI50: > 100 µM (inactive)
UACC-257
  GI50: > 100 µM (inactive)
Malme-3M
  GI50: 57.8 µM (inactive)
SK-MEL-5
  GI50: > 100 µM (inactive)
A498
  GI50: > 100 µM (inactive)
HOP-62
  GI50: > 100 µM (inactive)
HL-60
  GI50: > 100 µM (inactive)
HCT-116
  GI50: > 100 µM (inactive)
A549
  GI50: > 100 µM (inactive)
M14
  GI50: 5.07 µM (inactive)
SW-620
  GI50: > 100 µM (inactive)
OVCAR-3
  GI50: > 100 µM (inactive)
UO-31
  GI50: > 100 µM (inactive)
MDA-MB-231
  GI50: > 100 µM (inactive)
BT-549
  GI50: > 100 µM (inactive)
NCI-H460
  GI50: > 100 µM (inactive)
OVCAR-4
  GI50: > 100 µM (inactive)
EKVX
  GI50: > 100 µM (inactive)
SNB-19
  GI50: > 100 µM (inactive)
MDA-MB-435
  GI50: > 100 µM (inactive)
NCI-H226
  GI50: > 100 µM (inactive)
HT-29
  GI50: > 100 µM (inactive)
SF-295
  GI50: > 100 µM (inactive)
MCF7
  GI50: > 100 µM (inactive)
T47D
  GI50: > 100 µM (inactive)
RXF 393
  GI50: > 100 µM (inactive)
SN12C
  GI50: > 100 µM (inactive)
IGROV-1
  GI50: > 100 µM (inactive)
Hs-578T
  GI50: > 100 µM (inactive)
HCT-15
  GI50: > 100 µM
RPMI-8226
  GI50: > 100 µM (inactive)
786-0
  GI50: > 100 µM (inactive)
SF-268
  GI50: > 100 µM (inactive)
MOLT-4
  GI50: > 100 µM (inactive)
UACC-62
  GI50: > 100 µM (inactive)
NCI-H522
  GI50: > 100 µM (inactive)
CAKI-1
  GI50: > 100 µM (inactive)
SK-OV-3
  GI50: > 100 µM (inactive)
TK-10
  GI50: > 100 µM (inactive)
NCI/ADR-RES
  GI50: > 100 µM (inactive)
COLO 205
  GI50: > 100 µM (inactive)
LOX IMVI
  GI50: > 100 µM (inactive)
SK-MEL-28
  GI50: > 100 µM (inactive)
KM12
  GI50: 3.69 µM (inactive)
PC-3
  GI50: > 100 µM (inactive)
K562
  GI50: > 100 µM (inactive)
SK-MEL-2
  GI50: > 100 µM (inactive)
OVCAR-5
  GI50: > 100 µM (inactive)
U-251
  GI50: > 100 µM (inactive)
HCC 2998
  GI50: > 100 µM (inactive)
SNB-75
  GI50: > 100 µM (inactive)
MDA-N
  GI50: > 100 µM (inactive)
NCI-H23
  GI50: > 100 µM (inactive)
ACHN
  GI50: > 100 µM (inactive)
DU-145
  GI50: > 100 µM (inactive)
HOP-92
  GI50: > 100 µM (inactive)
